{
  "source": "patent US6103707A",
  "about": "“9-(2-deoxy-2-fluoro-4-thio-beta-D-arabinofuranosyl)purine derivatives” (Yamasa Corporation, priority 1996, dated 2000)",
  "key": {"HCMV": {"system": "HCMV", "assay": "Anti-Human Cytomegalovirus (HCMV) activity (plaque-formation inhibition in human embryonic lung fibroblasts)", "type": "cell-based", "details": "Human betaherpesvirus 5, AD169, Fibroblast, HCMV AD-169 strain, 4 days plus further 4 to 5 days, 50% plaque-formation inhibition, read-out: Antiviral Activity (ED50) HCMV", "protocol": "(3) Anti-Human Cytomegalovirus (HCMV) Activity\n(§1) 1. Fibroblasts derived from human embryonic lung tissue are subcultured in an Eagle's MEM supplemented with 10% of pseudo fetal calf serum (Mitsubishi Chemical Corp.), by passing at 1: (2-4) split every 4 or 5 days.\n2. A cell suspension obtained from the parent cells by passing at 1:2 split is seeded on a 24-well multiplate at a rate of 0.8 ml/well, and incubated in a CO2 -incubator at 37° C. for 4 days.\n3. The culture medium is discarded; and 400 microlitters of a serum (5%)-added Eagle's MEM containing 50 to 100 PFU of the AD-169 strain of HCMV is inoculated, thereby allowing the cells to adsorb the virus at 37° C. for 1 hour.\n4. The same amount of an MEM containing a test agent is added without discarding the virus liquid, and the resultant is incubated in a CO2 -incubator at 37° C. for 4 days. In general, the test agent is diluted serially by 1/2 log 10.\n5. The culture medium is replaced with a serum (2.5%)-added Eagle's MEM containing the test agent with the same concentration and 0.8% of methyl cellulose, and incubation is continued for a further 4 to 5 days.\n6. The culture medium is discarded, and the resultant is dyed with May-Gruenwald's and Giemsa (×10) solutions; the number of plaques in each well is counted under a stereoscopic light microscope; and the rate of plaque-formation inhibition is obtained from the same equation as is used in the above (1).\n7. The rates of plaque-formation inhibition are plotted against the concentrations (in logarithm) of the test agent, and, from this dose--plaque-formation inhibition curve, 50% inhibitory concentration (ED50) of the test agent is obtained."}, "HSV-1": {"system": "HSV-1", "assay": "Anti-HSV-1 activity (plaque-formation inhibition in human embryonic lung fibroblasts)", "type": "cell-based, herpes simplex virus 1 (HSV-1), VR-3 strain", "details": "Human alphaherpesvirus 1, Fibroblast, read-out: Antiviral Activity (ED50) HSV-1", "protocol": "(§2) (1) Anti-HSV-1 Activity and Anti-HSV-2 Activity\nas §1\n(§3) 2. A cell suspension obtained from the parent cells by passing at 1:2 split is seeded on a 12-well multiplate at a rate of 2 ml/well, and incubated in a CO2 -incubator at 37° C. for 4 days.\n(§4) 3. The culture medium is discarded; a Hanks' MEM (250 microlitters) containing 50 to 150 PFU of the VR-3 strain of HSV-1 or the MS strain of HSV-2 is inoculated, thereby allowing the cells to adsorb the virus at 37° C. for 30 minutes; and then the virus liquid is discarded.\n(§5) 4. A serum (2.5%)-added Eagle's MEM containing a test agent and 0.8% of methyl cellulose is added; and the resultant is incubated in a CO2 -incubator at 37° C. for 2 to 3 days. In general, the test agent is diluted serially by 1/2 log 10.\n(§6) 5. The culture medium is discarded, and the resultant is dyed with a 0.5% solution of crystal violet; the number of plaques in each well is counted under a stereoscopic light microscope; and the rate of plaque-formation inhibition is obtained from the equation below.\n(§7) 6. The rates of plaque-formation inhibition are plotted against the concentrations (in logarithm) of the test agent, and, from this dose--plaque-formation inhibition curve, 50% inhibitory concentration (ED50) of the test agent is obtained. [formula] (2) Anti-Varicella Zoster Virus (VZV) Activity"}, "VZV": {"system": "VZV", "assay": "microbe, parasite or virus in culture", "type": "cell-based, varicella-zoster virus (VZV), Oka strain", "details": "Human alphaherpesvirus 3, Fibroblast, read-out: Antiviral Activity (ED50) VZV", "text": "as §7, §1, §3\n3. The culture medium is discarded; and 750 microlitters of a serum (5%)-added Eagle's MEM containing 50 to 100 PFU of the Oka strain of VZV is inoculated, thereby allowing the cells to adsorb the virus at 37° C. for 1 hour.\n4. The same amount of an MEM containing a test agent is added without discarding the virus liquid, and the resultant is incubated in a CO2 -incubator at 37° C. In general, the test agent is diluted serially by 1/2 log 10.\n5. After 4-5 day incubation, the culture medium is discarded, and the resultant is dyed with a 0.5% solution of crystal violet; the number of plaques in each well is counted under a stereoscopic light microscope; and the rate of plaque-formation inhibition is obtained from the same equation as is used in the above (1).\n6. The rates of plaque-formation inhibition are plotted against the concentrations (in logarithm) of the test agent, and, from this dose--plaque-formation inhibition curve, 50% inhibitory concentration (ED50) of the test agent is obtained."}, "HSV-2": {"system": "HSV-2", "assay": "Anti-HSV-2 activity (plaque-formation inhibition in human embryonic lung fibroblasts)", "type": "cell-based, herpes simplex virus 2 (HSV-2), MS strain", "details": "Human alphaherpesvirus 2, Fibroblast, read-out: Antiviral Activity (ED50) HSV-2", "protocol": "as §2, §1, §3, §4, §5, §6, §7"}, "[1]": {"details": "HSV-1 VR-3 strain, human embryonic lung fibroblasts, 2 to 3 days, 50% plaque-formation inhibition"}, "[2]": {"details": "HSV-2 MS strain, human embryonic lung fibroblasts, 2 to 3 days, 50% plaque-formation inhibition"}},
  "note": "Like-named read-outs stand apart in the source and are kept apart here.",
  "data": [
    {"smiles": "Nc1ncnc2c1ncn2[C@@H]1O[C@H](CO)[C@@H](O)[C@@H]1O", "note": "[Control Example 1, araA, reference compound]", "values": [
      {"measurement": "EC50", "setting": "HCMV", "result": 6.5, "unit": "µg/mL"},
      {"measurement": "EC50", "setting": "HSV-1", "result": 17.1, "unit": "µg/mL"},
      {"measurement": "EC50", "setting": "VZV", "result": 1.17, "unit": "µg/mL"},
      {"measurement": "EC50", "setting": "HSV-2", "result": 6.6, "unit": "µg/mL"}
    ]},
    {"smiles": "Nc1nc2c(ncn2COCCO)c(=O)[nH]1", "note": "[Control Example 2, acyclovir, reference compound]", "values": [
      {"measurement": "EC50", "setting": "HCMV", "result": 6.9, "unit": "µg/mL"},
      {"measurement": "EC50", "setting": "HSV-1; [1]", "result": 0.14, "unit": "µg/mL"},
      {"measurement": "EC50", "setting": "HSV-2; [2]", "result": 0.23, "unit": "µg/mL"}
    ]},
    {"smiles": "Nc1nc(O)c2ncn(COC(CO)CO)c2n1", "note": "[Control Example 3, ganciclovir, reference compound]", "values": [
      {"measurement": "EC50", "setting": "HCMV", "result": 0.21, "unit": "µg/mL"},
      {"measurement": "EC50", "setting": "HSV-1; [1]", "result": 0.016, "unit": "µg/mL"},
      {"measurement": "EC50", "setting": "VZV", "result": 3.1, "unit": "µg/mL"},
      {"measurement": "EC50", "setting": "HSV-2; [2]", "result": 0.039, "unit": "µg/mL"}
    ]},
    {"smiles": "Nc1ncnc2c1ncn2[C@@H]1S[C@H](CO)[C@@H](O)[C@@H]1F", "note": "[Synthesis Example 1, 9-(2-deoxy-2-fluoro-4-thio-beta-D-arabinofuranosyl)adenine]", "values": [
      {"measurement": "EC50", "setting": "HCMV", "result": 1.41, "unit": "µg/mL"},
      {"measurement": "EC50", "setting": "HSV-1; [1]", "result": 1.61, "unit": "µg/mL"},
      {"measurement": "EC50", "setting": "VZV", "result": 3.04, "unit": "µg/mL"},
      {"measurement": "EC50", "setting": "HSV-2; [2]", "result": 3.07, "unit": "µg/mL"}
    ]},
    {"smiles": "Nc1nc(N)c2ncn([C@@H]3S[C@H](CO)[C@@H](O)[C@@H]3F)c2n1", "note": "[Synthesis Example 2, 9-(2-deoxy-2-fluoro-4-thio-beta-D-arabinofuranosyl)-2,6-diaminopurine]", "values": [
      {"measurement": "EC50", "setting": "HCMV", "result": 0.066, "unit": "µg/mL"},
      {"measurement": "EC50", "setting": "HSV-1; [1]", "result": 0.0057, "unit": "µg/mL"},
      {"measurement": "EC50", "setting": "VZV", "result": 0.101, "unit": "µg/mL"},
      {"measurement": "EC50", "setting": "HSV-2; [2]", "result": 0.05, "unit": "µg/mL"}
    ]},
    {"smiles": "Nc1nc2c(ncn2[C@@H]2S[C@H](CO)[C@@H](O)[C@@H]2F)c(=O)[nH]1", "note": "[Synthesis Example 3, 9-(2-deoxy-2-fluoro-4-thio-beta-D-arabinofuranosyl)guanine]", "values": [
      {"measurement": "EC50", "setting": "HCMV", "result": 0.078, "unit": "µg/mL"},
      {"measurement": "EC50", "setting": "HSV-1; [1]", "result": 0.0091, "unit": "µg/mL"},
      {"measurement": "EC50", "setting": "VZV", "result": 0.095, "unit": "µg/mL"},
      {"measurement": "EC50", "setting": "HSV-2; [2]", "result": 0.063, "unit": "µg/mL"}
    ]}
  ]
}
